Data as given in patent US9527853B2, “Fused triazole derivatives as gamma secretase modulators” (Ares Trading S.A., priority 2012, dated 2016).

How the values were obtained:
Aβ42 = test: Amyloidβ peptide release (Aβ42) assay, AlphaLisa on supernatant of APPswe-HEK cells; type: cell-based; conditions: Homo sapiens, 24 hours incubation with compound, read-out: Ab42 IC50 Ranges
Protocol: (§1) Amyloidβ Peptide Release (Aβ42 & AβTotal) Assay to Determine IC50 Values.
(§2) Amyloidβ peptide release (Aβ42 & AβTotal) assay are performed in 384 well microtiter plates (Perkin Elmer AlphaPlate #6008350) in a final volume of 20 μl, using supernatant coming from APPswe-HEK cells exposed to test compounds. Compounds are dissolved in and diluted in 100% DMSO and incubated with APPswe-HEK cells for 24 hours a 37° C. in 5% CO2. The supernatant from APPswe-HEK cells are mixed with antibodies: for Aβ42 detection: AlphaLisa Amyloid β 1-42 Kit (Perkin Elmer AL203L) Anti-Amyloid β1-42-specific antibody acceptor beads, biotinylated anti-Amyloid “β1-42” antibody and streptavidin (SA) donor beads diluted in AlphaLisa buffer (to the instructions of the supplier). For Aβ total detection: Custom Anti-Amyloid βtotal acceptor beads (6E10 acceptor beads), biotinylated anti-Amyloid “β1-42” antibody (Perkin Elmer AL203L) and streptavidin (SA) donor beads diluted in AlphaLisa buffer (to the instructions of the supplier). After addition of supernatant to the antibody mix, the assay is incubated 4 h and 30 minutes. AmyloidP peptide release (Aβ42 & AβTotal) is measured with a Pherastar FS (BMG) multimode reader using the alphascreen module.

AβTotal = test: Amyloidβ peptide release (AβTotal) assay, AlphaLisa on supernatant of APPswe-HEK cells; type: cell-based, human; conditions: 24 hours, ratio Abtot versus Ab42
Protocol: as §1, §2

IC50 (Aβ42) [nM]	Structure (SMILES)	Abtot/Ab42 selectivity ranges (AβTotal)
< 1000	Cc1cc(-c2ccc(NC(=O)c3nnn4c3CCCC4c3ccc(F)cc3)cc2)ccn1 (stereo not drawn) [Example 21, 7-(4-fluorophenyl)-N-(4-(2-methylpyridin-4-yl)phenyl)-4,5,6,7-tetrahydro-[1,2,3]triazolo[1,5-a]pyridine-3-carboxamide]	d (d: 10 fold > selectivity)
150 to 500	COc1cc(Nc2nnn3c2CCCC3c2ccc(F)cc2Cl)ccc1-n1cnc(C)c1 (stereo not drawn) [Example 1, 7-(2-chloro-4-fluorophenyl)-N-(3-methoxy-4-(4-methyl-1H-imidazol-1-yl)phenyl)-4,5,6,7-tetrahydro-[1,2,3]triazolo[1,5-a]pyridin-3-amine]	b (b: 100 fold > selectivity ≧ 50 fold)
150 to 500	COc1cc(Nc2nnn3c2CCCC3c2cccc(C(F)(F)F)c2)ccc1-n1cnc(C)c1 (stereo not drawn) [Example 6, N-(3-methoxy-4-(4-methyl-1H-imidazol-1-yl)phenyl)-7-(3-(trifluoromethyl)phenyl)-4,5,6,7-tetrahydro-[1,2,3]triazolo[1,5-a]pyridin-3-amine]	b (b: 100 fold > selectivity ≧ 50 fold)
150 to 500	COc1cc(Nc2nnn3c2CCCC3c2ccc(Cl)c(Cl)c2)ccc1-n1cnc(C)c1 (stereo not drawn) [Example 5, 7-(3,4-dichlorophenyl)-N-(3-methoxy-4-(4-methyl-1H-imidazol-1-yl)phenyl)-4,5,6,7-tetrahydro-[1,2,3]triazolo[1,5-a]pyridin-3-amine]	b (b: 100 fold > selectivity ≧ 50 fold)
150 to 500	COc1cc(NC(=O)c2nnn3c2CCC[C@H]3c2ccc(Cl)cc2)ccc1-n1cnc(C)c1 [Example 24, (S)-7-(4-chlorophenyl)-N-(3-methoxy-4-(4-methyl-1H-imidazol-1-yl)phenyl)-4,5,6,7-tetrahydro-[1,2,3]triazolo[1,5-a]pyridine-3-carboxamide]	b (b: 100 fold > selectivity ≧ 50 fold)
150 to 500	COc1cc(C(=O)Nc2nnn3c2CCCC3c2ccc(Cl)cc2)ccc1-n1cnc(C)c1 (stereo not drawn) [Example 40, N-(7-(4-chlorophenyl)-4,5,6,7-tetrahydro-[1,2,3]triazolo[1,5-a]pyridin-3-yl)-3-methoxy-4-(4-methyl-1H-imidazol-1-yl)benzamide]	b (b: 100 fold > selectivity ≧ 50 fold)
150 to 500	COc1cc(Nc2nnn3c2CCC3c2ccc(F)cc2)ccc1-n1cnc(C)c1 (stereo not drawn) [Example 10, 6-(4-fluorophenyl)-N-(3-methoxy-4-(4-methyl-1H-imidazol-1-yl)phenyl)-5,6-dihydro-4H-pyrrolo[1,2-c][1,2,3]triazol-3-amine]	a (a: selectivity ≧ 100 fold)
≤ 150	COc1cc(NC(=O)c2nnn3c2CCCC3c2ccc(Cl)c(Cl)c2)ccc1-n1cnc(C)c1 (stereo not drawn) [Example 19, 7-(3,4-dichlorophenyl)-N-(3-methoxy-4-(4-methyl-1H-imidazol-1-yl)phenyl)-4,5,6,7-tetrahydro-[1,2,3]triazolo[1,5-a]pyridine-3-carboxamide]	b (b: 100 fold > selectivity ≧ 50 fold)
150 to 500	Cc1cn(-c2ccc(NC(=O)c3nnn4c3CCC4c3ccc(Cl)cc3)cc2C#N)cn1 (stereo not drawn) [Example 27, 6-(4-chlorophenyl)-N-(3-cyano-4-(4-methyl-1H-imidazol-1-yl)phenyl)-5,6-dihydro-4H-pyrrolo[1,2-c][1,2,3]triazole-3-carboxamide]	c (c: 50 fold > selectivity ≧ 10 fold)
150 to 500	COc1cc(Nc2nnn3c2CCC3c2ccccc2Cl)ccc1-n1cnc(C)c1 (stereo not drawn) [Example 11, 6-(2-chlorophenyl)-N-(3-methoxy-4-(4-methyl-1H-imidazol-1-yl)phenyl)-5,6-dihydro-4H-pyrrolo[1,2-c][1,2,3]triazol-3-amine]	b (b: 100 fold > selectivity ≧ 50 fold)
500 to 1000	COc1cc(C(=O)Nc2nnn3c2CCC3c2ccc(F)cc2)ccc1-n1cnc(C)c1 (stereo not drawn) [Example 46, N-(6-(4-fluorophenyl)-5,6-dihydro-4H-pyrrolo[1,2-c][1,2,3]triazol-3-yl)-3-methoxy-4-(4-methyl-1H-imidazol-1-yl)benzamide]	c (c: 50 fold > selectivity ≧ 10 fold)
150 to 500	COc1cc(NC(=O)c2nnn3c2COCC3c2ccc(Cl)cc2)ccc1-n1cnc(C)c1 (stereo not drawn) [Example 38, 7-(4-chlorophenyl)-N-(3-methoxy-4-(4-methyl-1H-imidazol-1-yl)phenyl)-6,7-dihydro-4H-[1,2,3]triazolo[5,1-c][1,4]oxazine-3-carboxamide]	b (b: 100 fold > selectivity ≧ 50 fold)
150 to 500	COc1cc(NC(=O)c2nnn3c2CCCC3c2ccc(F)cc2)ccc1-n1cnc(C)c1 (stereo not drawn) [Example 20, 7-(4-fluorophenyl)-N-(3-methoxy-4-(4-methyl-1H-imidazol-1-yl)phenyl)-4,5,6,7-tetrahydro-[1,2,3]triazolo[1,5-a]pyridine-3-carboxamide]	b (b: 100 fold > selectivity ≧ 50 fold)
150 to 500	COc1cc(NC(=O)c2nnn3c2CC[C@H]3c2ccc(Cl)cc2)ccc1-n1cnc(C)c1 [Example 31, (S)-6-(4-chlorophenyl)-N-(3-methoxy-4-(4-methyl-1H-imidazol-1-yl)phenyl)-5,6-dihydro-4H-pyrrolo[1,2-c][1,2,3]triazole-3-carboxamide]	c (c: 50 fold > selectivity ≧ 10 fold)
150 to 500	Cc1cn(-c2ccc(NC(=O)c3nnn4c3CCCC4c3ccc(Cl)cc3)cc2F)cn1 (stereo not drawn) [Example 14, 7-(4-chlorophenyl)-N-(3-fluoro-4-(4-methyl-1H-imidazol-1-yl)phenyl)-4,5,6,7-tetrahydro-[1,2,3]triazolo[1,5-a]pyridine-3-carboxamide]	c (c: 50 fold > selectivity ≧ 10 fold)
150 to 500	COc1cc(C(=O)Nc2nnn3c2CCC3c2ccc(Cl)c(Cl)c2)ccc1-n1cnc(C)c1 (stereo not drawn) [Example 45]	c (c: 50 fold > selectivity ≧ 10 fold)
≤ 150	COc1cc(NC(=O)c2nnn3c2CCC[C@@H]3c2ccc(Cl)cc2)ccc1-n1cnc(C)c1 [Example 23, (R)-7-(4-chlorophenyl)-N-(3-methoxy-4-(4-methyl-1H-imidazol-1-yl)phenyl)-4,5,6,7-tetrahydro-[1,2,3]triazolo[1,5-a]pyridine-3-carboxamide]	b (b: 100 fold > selectivity ≧ 50 fold)
≤ 150	COc1cc(NC(=O)c2nnn3c2CCCC3c2ccc(Cl)cc2)ccc1-n1cnc(C)c1 (stereo not drawn) [Example 12, 7-(4-chlorophenyl)-N-(3-methoxy-4-(4-methyl-1H-imidazol-1-yl)phenyl)-4,5,6,7-tetrahydro-[1,2,3]triazolo[1,5-a]pyridine-3-carboxamide]	b (b: 100 fold > selectivity ≧ 50 fold)
150 to 500	COc1cc(NC(=O)c2nnn3c2CCC3c2ccc(Cl)c(Cl)c2)ccc1-c1cnn(C)c1 (stereo not drawn) [Example 35, 6-(3,4-dichlorophenyl)-N-(3-methoxy-4-(1-methyl-1H-pyrazol-4-yl)phenyl)-5,6-dihydro-4H-pyrrolo[1,2-c][1,2,3]triazole-3-carboxamide]	c (c: 50 fold > selectivity ≧ 10 fold)
150 to 500	Cc1cc(-c2ccc(Nc3nnn4c3CCC4c3ccc(Cl)cc3)cc2)ccn1 (stereo not drawn) [Example 9]	a (a: selectivity ≧ 100 fold)
150 to 500	COc1cc(NC(=O)c2nnn3c2CCCC3c2cccc(C(F)(F)F)c2)ccc1-n1cnc(C)c1 (stereo not drawn) [Example 22, N-(3-methoxy-4-(4-methyl-1H-imidazol-1-yl)phenyl)-7-(3-(trifluoromethyl)phenyl)-4,5,6,7-tetrahydro-[1,2,3]triazolo[1,5-a]pyridine-3-carboxamide]	b (b: 100 fold > selectivity ≧ 50 fold)
150 to 500	Cc1cn(-c2ccc(Nc3nnn4c3CCCC4c3ccc(F)cc3Cl)cc2F)cn1 (stereo not drawn) [Example 3, 7-(2-chloro-4-fluorophenyl)-N-(3-fluoro-4-(4-methyl-1H-imidazol-1-yl)phenyl)-4,5,6,7-tetrahydro-[1,2,3]triazolo[1,5-a]pyridin-3-amine]	b (b: 100 fold > selectivity ≧ 50 fold)
< 1000	COc1nc(NC(=O)c2nnn3c2CCC3c2ccc(Cl)cc2)ccc1-n1cnc(C)c1 (stereo not drawn) [Example 29, 6-(4-chlorophenyl)-N-(6-methoxy-5-(4-methyl-1H-imidazol-1-yl)pyridin-2-yl)-5,6-dihydro-4H-pyrrolo[1,2-c][1,2,3]triazole-3-carboxamide]	a (a: selectivity ≧ 100 fold)
≤ 150	COc1cc(NC(=O)c2nnn3c2CC[C@@H]3c2ccc(Cl)cc2)ccc1-n1cnc(C)c1 [Example 30, (R)-6-(4-chlorophenyl)-N-(3-methoxy-4-(4-methyl-1H-imidazol-1-yl)phenyl)-5,6-dihydro-4H-pyrrolo[1,2-c][1,2,3]triazole-3-carboxamide]	b (b: 100 fold > selectivity ≧ 50 fold)
